According to patent US20240423957A1, “TOPICAL ANTI-INFLAMMATORY AND ANALGESIC COMPOSITIONS AND METHODS OF USE” (INSIGNIA PHARMACEUTICALS, LLC, priority 2023, published 2024):
“Also recorded” adds a separate entry of the source.

What was measured:
[1] = tested on: Human osteoarthritic chondrocytes; assay: Immunostaining of human osteoarthritic chondrocytes cultured 24 days on hyaluronic acid hydrogel (SOX9, Col2a1, ACAN); assay type: cell-based
Source text: The chondrocytes were layered on top of a hyaluronic acid hydrogel ([…]®, Sanofi-Aventis, United States) to promote a three-dimensional culture environment. Following 24 days, the cells were fixed with paraformaldehyde and immunostained for SOX9, Col2a1, and ACAN.

[2] = tested on: Human osteoarthritic chondrocytes; assay: Real-time RT-PCR of Col2a1 mRNA in human osteoarthritic chondrocytes cultured 20 days; assay type: cell-based; conditions: delta-delta CT against GAPDH, actin, 18S rRNA
Description: The chondrocytes were layered on top of a hyaluronic acid hydrogel ([…]®, Sanofi-Aventis, United States) to promote a three-dimensional culture environment. Following 20 days, hyaluronidase was added to release the cells from the hydrogel, the cells were collected, and total RNA was isolated.

[3] = tested on: human chondrocyte spheroids; assay: Morphology of human chondrocyte spheroids in hyaluronic acid hydrogel; assay type: cell-based
[4] = tested on: THP-1 macrophage-like cells; assay: IL-1beta release (ELISA) from PMA-differentiated THP-1 macrophage-like cells; assay type: cell-based, human; conditions: 0.2 to 6 millimolar; activation with 100 ng/mL LPS 24 hours then 10 millimolar ATP 1 hour (FIG. 4)
Description: (§1) The human monocyte cell line THP-1 was differentiated into macrophage-like cells with PMA for 72 hours. […] Cells were then activated with 100 nanograms per milliliter LPS for 24 hours followed by an additional hour with 10 millimolar adenosine triphosphate (ATP). IL-1beta release was quantified by enzyme-linked immunosorbent assay (ELISA).

THP-1 cells = assay: Viability of PMA-differentiated THP-1 cells (optical density at 490 nanometers); assay type: cell-based, human
Description: as §1
Cell viability was also assessed by optical density at 490 nanometers (FIGS. 5A & 5B).

[5] = cited from earlier work
[6] = high-density monolayers, ethanol vehicle, 0.1, 0.5 and 1 millimolar, 24 days

In the case of `CCCCCCCCCC(=O)O` [decanoic acid], the “ACAN immunostaining of chondrocyte spheroids” value ([1]; 1 millimolar) is reported as “strong ACAN immunostaining”, the “SOX9 staining of spheroids” value ([1]; 1 millimolar, 24 days) is reported as “stained strongly for SOX9” and the “spheroid development or condensation” value ([1]; 1 millimolar, 24 days) is reported as “enhanced spheroid development or condensation”. The “concentration with peak Col2a1 staining” value ([1]; high-density monolayers) was 0.5 millimolar, the “nuclear staining for SOX9” value [1, 6] was “enhanced nuclear staining for SOX9 in a dose-dependent manner” and the “punctate staining for ACAN” value [1, 6] was “dose-dependent punctate staining for ACAN”. For the same compound, the “punctate staining for Col2a1” value [1, 6] was “dose-dependent punctate staining for Col2a1”, the “concentration with strongest ACAN staining” value ([1]; low-density monolayers) was 1 millimolar and the “punctate immunostaining for Col2a1” value ([1]; low-density monolayers, 1 millimolar) was “strong punctate immunostaining for Col2a1”. The “increase in Col2a1 mRNA” value ([2]; 0.5 millimolar) was 1 fold, the “increase in Col2a1 mRNA” value ([2]; 1 millimolar) was 7 fold and the spheroid morphology ([3]; after 4 days of culture (FIGS. 2A & 2B)) was “promoted interconnected networks of spheroids; also recorded: generated interconnected networks that suspended the spheroids”. The spheroid morphology ([3]; after 20 days of culture (FIGS. 3A & 3B)) was “large spheroid development or condensation”, the IL-1beta release [4] was “dose-dependent inhibition of IL-1beta release; also recorded: dose-dependent inhibition of IL-1beta concentrations” and the cell viability (THP-1 cells; 6 millimolar (FIGS. 5A & 5B)) was “unfavorable effect on viability; also recorded: significant decrease in viability”. For the same compound, the cell viability (THP-1 cells; concentrations below 6 millimolar (from 0.19 millimolar), relative to vehicle controls) was “no lower concentration of decanoic acid reduced cell viability” and the pKa [5] was “about 4.9”.
